According to ChEMBL document CHEMBL5107941, “Design and optimisation of a small-molecule TLR2/4 antagonist for anti-tumour therapy” (RSC Med Chem, 2021):

Key:
[1] = Cytotoxicity against HEK-Blue hTLR2 cells assessed as lethal dose measured after 24 hrs by CCK-8 assay; format: toxicity, cell-based; settings: human, read-out: LD50
Toll-like receptor 4 = Toll-like receptor 4 (Homo sapiens, UniProt O00206); experiment: Antagonist activity at human TLR4 in HEK-Blue hTLR4 cells assessed as inhibition of LPS-induced receptor activation preincubated with LPS followed by compound addition and measured 24 hrs by Quanti-Blue based SEAP reporter gene assay; format: cell-based
Sequence of Toll-like receptor 4 (O00206 whole entry): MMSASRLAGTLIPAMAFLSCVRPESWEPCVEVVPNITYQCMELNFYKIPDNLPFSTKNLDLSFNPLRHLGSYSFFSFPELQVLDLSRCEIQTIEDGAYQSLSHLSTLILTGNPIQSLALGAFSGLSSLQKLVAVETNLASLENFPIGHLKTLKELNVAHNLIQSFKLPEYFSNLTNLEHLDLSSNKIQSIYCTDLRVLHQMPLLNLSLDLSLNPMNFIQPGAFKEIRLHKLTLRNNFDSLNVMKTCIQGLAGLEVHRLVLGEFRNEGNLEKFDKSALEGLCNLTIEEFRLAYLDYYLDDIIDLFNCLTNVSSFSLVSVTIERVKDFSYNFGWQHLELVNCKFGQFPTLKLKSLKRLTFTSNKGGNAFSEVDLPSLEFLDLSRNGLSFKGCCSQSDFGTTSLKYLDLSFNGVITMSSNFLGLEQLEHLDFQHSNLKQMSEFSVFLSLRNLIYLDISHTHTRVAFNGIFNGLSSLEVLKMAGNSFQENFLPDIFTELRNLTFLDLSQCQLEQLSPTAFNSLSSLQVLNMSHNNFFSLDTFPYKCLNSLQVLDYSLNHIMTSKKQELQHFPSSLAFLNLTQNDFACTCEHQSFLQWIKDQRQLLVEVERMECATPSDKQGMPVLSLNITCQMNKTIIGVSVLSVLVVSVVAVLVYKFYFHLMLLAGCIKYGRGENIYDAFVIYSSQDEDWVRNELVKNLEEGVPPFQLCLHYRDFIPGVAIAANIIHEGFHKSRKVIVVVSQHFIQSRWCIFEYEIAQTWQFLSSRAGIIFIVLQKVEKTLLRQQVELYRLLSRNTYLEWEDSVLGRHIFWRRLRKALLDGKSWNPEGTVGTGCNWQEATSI

[2] = Cytotoxicity against HEK-Blue hTLR4 cells assessed as lethal dose measured after 24 hrs by CCK-8 assay; format: toxicity, cell-based; settings: human, read-out: LD50
[3] = Cytotoxicity against mouse RAW264.7 cells assessed as lethal dose measured after 24 hrs by CCK-8 assay; format: toxicity, cell-based; settings: read-out: LD50
Toll-like receptor 2 = Toll-like receptor 2 (Homo sapiens, UniProt O60603); experiment: Antagonist activity at human TLR2 in HEK-Blue hTLR2 cells assessed as inhibition of Pam3CSK4-induced receptor activation preincubated with Pam3CSK4 followed by compound addition and measured 24 hrs by Quanti-Blue based SEAP reporter gene assay; format: cell-based
Sequence of Toll-like receptor 2 (O60603 whole entry): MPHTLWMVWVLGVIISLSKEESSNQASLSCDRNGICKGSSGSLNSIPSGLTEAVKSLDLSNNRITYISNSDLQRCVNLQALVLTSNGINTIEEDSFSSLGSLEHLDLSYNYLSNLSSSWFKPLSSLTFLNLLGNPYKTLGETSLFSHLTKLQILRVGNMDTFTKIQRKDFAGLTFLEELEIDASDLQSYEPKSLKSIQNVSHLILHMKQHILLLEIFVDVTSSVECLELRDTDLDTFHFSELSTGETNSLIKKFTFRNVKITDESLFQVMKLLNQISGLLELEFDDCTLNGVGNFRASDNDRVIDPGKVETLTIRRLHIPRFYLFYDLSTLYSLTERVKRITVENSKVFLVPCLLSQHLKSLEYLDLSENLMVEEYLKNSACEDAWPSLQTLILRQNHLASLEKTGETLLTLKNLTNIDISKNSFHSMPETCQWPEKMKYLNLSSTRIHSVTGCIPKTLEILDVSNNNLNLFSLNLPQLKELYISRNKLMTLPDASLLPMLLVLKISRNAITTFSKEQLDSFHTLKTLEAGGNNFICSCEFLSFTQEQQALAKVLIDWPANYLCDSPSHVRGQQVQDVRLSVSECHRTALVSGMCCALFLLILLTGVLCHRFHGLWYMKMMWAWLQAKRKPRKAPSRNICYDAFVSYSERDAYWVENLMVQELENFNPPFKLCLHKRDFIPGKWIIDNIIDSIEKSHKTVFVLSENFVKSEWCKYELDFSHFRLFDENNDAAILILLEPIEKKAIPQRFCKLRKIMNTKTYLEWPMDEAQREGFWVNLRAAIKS

Row | IC50 (Toll-like receptor 4) | SMILES | IC50 (Toll-like receptor 2) | further results
1 | 3.1 µM | O=[N+]([O-])/C=C/c1cccc(Nc2cccnc2)c1 |  | 
2 | 3.6 µM | O=C(Nc1ccccn1)c1cccc(/C=C/[N+](=O)[O-])c1 |  | 
3 | 9.2 µM | CCOC(=O)c1ccc(COc2cccc(/C=C/[N+](=O)[O-])c2)nc1 | 12.3 µM | 
4 | 6.2 µM | O=[N+]([O-])/C=C/c1cccc(Oc2ncccn2)c1 |  | 
5 | 0.28 µM | O=[N+]([O-])/C=C/c1cccc(-c2ccccn2)c1 |  | 
6 | 3.7 µM | CCCCOC(=O)c1ccc(COc2cccc(/C=C/[N+](=O)[O-])c2)nc1 | 3.1 µM | 
7 | 2.8 µM | O=[N+]([O-])/C=C/c1cccc(Nc2ncccn2)c1 | 2.6 µM | 
8 | 4.3 µM | O=[N+]([O-])/C=C/c1cccc(Oc2ccccc2)c1 | 3.4 µM | 
9 | 6.3 µM | C/C(=C\[N+](=O)[O-])c1cccc(Oc2ccccc2)c1 |  | 
10 | 1 µM | O=[N+]([O-])/C=C/c1cccc(Oc2ccccn2)c1 | 1.2 µM | 
11 | 2.4 µM | O=[N+]([O-])/C=C/c1cccc(Oc2nccs2)c1 |  | 
12 | 3.7 µM | CN(C)c1ccc(/C=C/[N+](=O)[O-])cc1Nc1ccccn1 |  | 
13 | 6.5 µM | O=[N+]([O-])/C=C/c1ccc(Oc2ccccc2)cc1 |  | 

Second part, the compound before the results:

Row | SMILES | IC50 (Toll-like receptor 4) | IC50 (Toll-like receptor 2) | further results
14 | O=[N+]([O-])/C=C/c1cccc(Nc2ccccn2)c1 | 0.46 µM |  | CC50 at 24 h [1]: 28 µM; CC50 at 24 h [2]: 28 µM; CC50 at 24 h [3]: 28 µM
15 | CCCOC(=O)c1ccc(COc2cccc(/C=C/[N+](=O)[O-])c2)nc1 | 5.9 µM |  | 
16 | CCCCOc1cccc(/C=C/[N+](=O)[O-])c1 | 5.8 µM | 3.9 µM | 
17 | O=[N+]([O-])/C=C/c1cccc(OCc2ccccc2)c1 | 3.5 µM | 3.3 µM | 
18 | O=[N+]([O-])/C=C/c1cccc(OCc2ccncc2)c1 | 3.9 µM | 3.2 µM | 
19 | O=[N+]([O-])/C=C/c1ccccc1Oc1ccccc1 |  | 4.4 µM | 
20 | O=[N+]([O-])/C=C/c1cccc(OCc2ccc(F)cc2)c1 | 4.2 µM | 5.5 µM | 
21 | O=[N+]([O-])/C=C/c1cccc(OCc2ccc(Cl)cc2)c1 | 4.8 µM | 4.3 µM | 
22 | COc1ccc(COc2cccc(/C=C/[N+](=O)[O-])c2)cc1 | 5.6 µM | 4.4 µM | 
23 | O=[N+]([O-])/C=C/c1cccc(OCc2ccc3ccccc3c2)c1 | 4.4 µM | 5 µM | 
24 | O=[N+]([O-])/C=C/c1cccc(OCC2CCCCC2)c1 | 5.9 µM |  | 
25 | O=[N+]([O-])/C=C/c1cccc(OCc2ccccn2)c1 | 1.4 µM | 1.1 µM | 
26 | O=[N+]([O-])/C=C/c1cccc(OCC2CC2)c1 | 2.5 µM | 2.4 µM | 
